Biological target: recombinant β-secretase (Homo sapiens, UniProt P56817)
Test: β-secretase
Type: biochemical

Chain of recombinant β-secretase (P56817 46-501): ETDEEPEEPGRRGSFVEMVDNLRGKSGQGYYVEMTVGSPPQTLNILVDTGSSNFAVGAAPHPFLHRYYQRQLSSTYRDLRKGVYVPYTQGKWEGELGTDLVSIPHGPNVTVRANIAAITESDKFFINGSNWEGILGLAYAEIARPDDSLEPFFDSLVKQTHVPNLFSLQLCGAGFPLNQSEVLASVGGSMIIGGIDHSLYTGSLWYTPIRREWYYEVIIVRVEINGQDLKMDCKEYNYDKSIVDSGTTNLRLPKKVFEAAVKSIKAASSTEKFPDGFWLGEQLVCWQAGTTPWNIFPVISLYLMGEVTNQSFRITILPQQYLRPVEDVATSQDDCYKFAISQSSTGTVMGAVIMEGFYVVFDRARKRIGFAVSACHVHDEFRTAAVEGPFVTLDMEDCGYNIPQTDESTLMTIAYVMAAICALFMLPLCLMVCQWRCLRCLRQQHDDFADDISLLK

Row | Compound | drop in potency with respect to 3a (ratio of BACE1 Ki to that of 3a) | improvement over inhibitor 4a (ratio of BACE1 potency to that of 4a)
1 | Cc1cc(C)n(C[C@@H](C)C(=O)N[C@@H](CNC(=O)OC(C)(C)C)C(=O)N[C@@H](CC(C)C)[C@@H](O)C[C@@H](C)C(=O)N[C@H](C(=O)NCC(C)C)C(C)C)n1 [Inhibitor 3b] | ~40 fold | 
2 | Cc1csc(C[C@H](C)C(=O)N[C@@H](CNC(=O)OC(C)(C)C)C(=O)N[C@@H](CC(C)C)[C@@H](O)C[C@@H](C)C(=O)N[C@H](C(=O)NCC(C)C)C(C)C)n1 [Inhibitor 4c] |  | over 120 fold

From paper PMC4297543 (Bioorganic & medicinal chemistry letters, 2014)
